Reference: US11724999B2, “Inhibitors of RAS-effector protein interactions” (Oxford University Innovation Limited, priority 2018, dated 2023)

Molecular target: T1, GST-human KRas166 (G12V) GPPNHP (Homo sapiens, UniProt P01116, G12V)
T1 construct: made in house; host or cells: E. coli C41(DE3)
Test: KRas small-molecule screening by SPR (BIACORE T200)
Type: binding
Settings: compound at final concentration of 100 uM; immobilised GST-KRAS166 (G12V) GPPNHP, GST reference channel
Protocol: For SPR assays pGEX-KRAS(G12V) plasmid was transformed into E. coli C41(DE3). Bacterial cells were cultured at 37° C. to an OD600 of 0.6 and induced with IPTG (final 0.1 mM) at 18° C. overnight. The GST fusion proteins were extracted from bacteria pellets after cell disruption in 140 mM NaCl, 2.7 mM KCl, […], 1.8 mM KH2PO4, 1 mM EDTA, 2 mM MgCl2 pH 7.4 and purified by glutathione-sepharose column chromatography (GE Healthcare), eluting with 50 mM Tris-HCl pH8.0, 10 mM reduced glutathione, 1 mM DTT, 2 mM MgC2. The eluted proteins were dialysed against 50 mM Tris-HCl pH8.0, 1 mM DTT, 2 mM MgCl2 and concentrated to 10 mg/ml using a Biomax-30 […]-15 centrifugal filter device (Millipore). Purified KRAS protein was loaded with GPPNHP as described elsewhere (Pacold et al., 2000). Loaded protein was then purified by gel filtration on a HiLoad Superdex-75 HR column (GE Healthcare) in 1×PBS pH7.4, 5 mM MgCl2 and concentrated for storage.
To a previously immobilized CM5 chip (GE Healthcare BR-1005-30) with anti GST antibody via amine coupling method, GST in channel 1 and GST-human KRas166 (G12V) GPPNHP in channel 2 were immobilised. GST was immobilised between 2,000 and 5,000 Response units. KRAS166 (G12V) was immobilized between 10,000 to 15,000 Response Units.
In a 96 well plate, compounds were diluted in […], 5 mM MgCl2 and 5% DMSO Buffer to a final concentration of 100 uM. DCAI was used as positive control. Experiment also included a solvent correction curve for 5% DMSO. Screening and evaluation of the protein immobilization and the compounds screening was done accordingly to the BIACORE T200 control and evaluation software.
Protein immobilisation: 10,000 RU; average fragment 300 Da in size. Rmax=(MWA/MWL)×RL×SM MWA is the molecular weight of the analyte in Da MWL is the molecular weight of the ligand in Da RL is the immobilization level in RU SM is the molar stoichiometry (assume 1:1) Rmax=300/47,500×10,000×1 Rmax=63 RU. Cell Viability Assay protocols

| SMILES | SPR Response Units |
| --- | --- |
| CC(=O)N1CCC(NC[C@@H]2COc3ccc(OCc4ccccc4)cc3O2)CC1 [Example 34, 1-{4-[((R)-7-Benzyloxy-2,3-dihydro-benzo[1,4]dioxin-2-ylmethyl)-amino]-piperidin-1-yl}-ethanone] | 23 Response Units |
| CN1CCC(CC(=O)NC[C@@H]2COc3ccc(OCc4ccccc4)cc3O2)CC1 [Example 8, N-((R)-7-Benzyloxy-2,3-dihydro-benzo[1,4]dioxin-2-ylmethyl)-2-(1-methyl-piperidin-4-yl)-acetamide] | 24 Response Units |
| CN(C)CCC(=O)NC[C@@H]1COc2ccc(OCc3ccccc3)cc2O1 [Example 6, N-((R)-7-Benzyloxy-2,3-dihydro-benzo[1,4]dioxin-2-ylmethyl)-3-dimethylamino-propionamide] | 21 Response Units |
| O=C(NC[C@@H]1COc2ccc(OCc3cccnc3)cc2O1)c1ncco1 [Example 19, Oxazole-2-carboxylic acid [(R)-7-(pyridin-3-ylmethoxy)-2,3-dihydro-benzo[1,4]dioxin-2-ylmethyl]-amide] | 40 Response Units |
| O=C(NCc1cccc(CN2CCOCC2)c1)C1COc2ccc(OCc3ccccc3)cc2O1 (centres unmarked) [Example 66, 7-Benzyloxy-2,3-dihydro-benzo[1,4]dioxine-2-carboxylic acid 3-morpholin-4-ylmethyl-benzylamide] | 53 Response Units |
| O=C(NCc1ccc(CN2CCOCC2)cc1)C1COc2ccc(OCc3ccccc3)cc2O1 (centres unmarked) [Example 65, 7-Benzyloxy-2,3-dihydro-benzo[1,4]dioxine-2-carboxylic acid 4-morpholin-4-ylmethyl-benzylamide] | 46 Response Units |
| O=C(NC[C@@H]1COc2ccc(OCc3ccccc3)cc2O1)C1CCOCC1 [Example 5, Tetrahydro-pyran-4-carboxylic acid ((R)-7-benzyloxy-2,3-dihydro-benzo[1,4]dioxin-2-ylmethyl)-amide] | 25 Response Units |
| O=C(NC[C@@H]1COc2ccc(OCc3ccccc3)cc2O1)C1CCN(Cc2ccco2)CC1 [Example 15, 1-Furan-2-ylmethyl-piperidine-4-carboxylic acid ((R)-7-benzyloxy-2,3-dihydro-benzo[1,4]dioxin-2-ylmethyl)-amide] | 33 Response Units |
| CN1CCN(Cc2ccc(C(=O)NC[C@@H]3COc4ccc(OCc5ccc(Cl)cn5)cc4O3)o2)CC1 [Example 26, 5-(4-Methyl-piperazin-1-ylmethyl)-furan-2-carboxylic acid [(R)-7-(5-chloro-pyridin-2-ylmethoxy)-2,3-dihydro-benzo[1,4]dioxin-2-ylmethyl]-amide] | 48 Response Units |
| O=C(CC1CCNCC1)NC[C@@H]1COc2ccc(OCc3ccccc3)cc2O1 [Example 16, N-((R)-7-Benzyloxy-2,3-dihydro-benzo[1,4]dioxin-2-ylmethyl)-2-piperidin-4-yl-acetamide] | 25 Response Units |
| O=C(C1COc2ccc(OCc3ccccc3)cc2O1)N1CCN(Cc2ccncc2)CC1 (centres unmarked) [Example 63, (7-Benzyloxy-2,3-dihydro-benzo[1,4]dioxin-2-yl)-(4-pyridin-4-ylmethyl-piperazin-1-yl)-methanone] | 79 Response Units |
| O=C(NC[C@@H]1COc2ccc(OCc3ccccc3)cc2O1)C1CCNCC1 [Example 17, Piperidine-4-carboxylic acid ((R)-7-benzyloxy-2,3-dihydro-benzo[1,4]dioxin-2-ylmethyl)-amide] | 22 Response Units |
| CN1CCN(Cc2ccc(C(=O)NC[C@@H]3COc4ccc(OCc5cncc(Cl)c5)cc4O3)o2)CC1 [Example 25, 5-(4-Methyl-piperazin-1-ylmethyl)-furan-2-carboxylic acid [(R)-7-(5-chloro-pyridin-3-ylmethoxy)-2,3-dihydro-benzo[1,4]dioxin-2-ylmethyl]-amide] | 45 Response Units |
| Cc1n[nH]c(C)c1CC(=O)NC[C@@H]1COc2ccc(OCc3ccccc3)cc2O1 [Example 12, N-((R)-7-Benzyloxy-2,3-dihydro-benzo[1,4]dioxin-2-ylmethyl)-2-(3,5-dimethyl-1H-pyrazol-4-yl)-acetamide] | 53 Response Units |
| O=C(NC[C@@H]1COc2ccc(OCc3cn[nH]c3)cc2O1)c1ncco1 [Example 20, Oxazole-2-carboxylic acid [(R)-7-(1H-pyrazol-4-ylmethoxy)-2,3-dihydro-benzo[1,4]dioxin-2-ylmethyl]-amide] | 40 Response Units |
| O=C(C1COc2ccc(OCc3ccccc3)cc2O1)N1CCN(CC2CCOCC2)CC1 (centres unmarked) [Example 64, (7-Benzyloxy-2,3-dihydro-benzo[1,4]dioxin-2-yl)-[4-(tetrahydro-pyran-4-ylmethyl)-piperazin-1-yl]-methanone] | 36 Response Units |
| NC(=O)CN1CCC(C(=O)NC[C@@H]2COc3ccc(OCc4ccccc4)cc3O2)CC1 [Example 14, 1-Carbamoylmethyl-piperidine-4-carboxylic acid ((R)-7-benzyloxy-2,3-dihydro-benzo[1,4]dioxin-2-ylmethyl)-amide] | 24 Response Units |
| O=C(Cc1cccnc1)NC[C@@H]1COc2ccc(OCc3ccccc3)cc2O1 [Example 11, N-((R)-7-Benzyloxy-2,3-dihydro-benzo[1,4]dioxin-2-ylmethyl)-2-pyridin-3-yl-acetamide] | 68 Response Units |
| O=C1CN(c2ccccn2)C(=O)N1C[C@@H]1COc2ccc(OCc3ccccc3)cc2O1.O=CO [Example 78, 3-((R)-7-Benzyloxy-2,3-dihydro-benzo[1,4]dioxin-2-ylmethyl)-1-pyridin-2-yl-imidazolidine-2,4-dione] | 28 Response Units |
| CNC(=O)C(NC[C@@H]1COc2ccc(OCc3ccccc3)cc2O1)c1ccccc1 (stereo partly drawn) [Example 49, 2-[((R)-7-Benzyloxy-2,3-dihydro-benzo[1,4]dioxin-2-ylmethyl)-amino]-N-methyl-2-phenyl-acetamide] | 67 Response Units |

Results, then the molecule that gave them:

| SPR Response Units | SMILES |
| --- | --- |
| 51 Response Units | N[C@H]1CC[C@@H](NC(=O)C2COc3ccc(OCc4ccccc4)cc3O2)CC1 (some centres unmarked) [Example 75, 7-Benzyloxy-2,3-dihydro-benzo[1,4]dioxine-2-carboxylic acid (4-amino-cyclohexyl)-amide] |
| 93 Response Units | CN1CCC(NC(=O)NC[C@@H]2COc3ccc(OCc4ccccc4)cc3O2)CC1 [Example 80, 1-(7-benzyloxy-2,3-dihydro-benzo[1,4]dioxin-2-ylmethyl)-3-(1-methyl-piperidin-4-yl)-urea] |
| 49 Response Units | O=C(NCc1cccnc1)C1COc2ccc(OCc3ccccc3)cc2O1 (centres unmarked) [Example 67, 7-Benzyloxy-2,3-dihydro-benzo[1,4]dioxine-2-carboxylic acid (pyridin-3-ylmethyl)-amide] |
| 63 Response Units | CN1CCN(C(=O)NC[C@@H]2COc3ccc(OCc4ccccc4)cc3O2)CC1 [Example 82, 4-methyl-piperazine-1-carboxylic acid ((R)-7-benzyloxy-2,3-dihydro-benzo[1,4]dioxin-2-ylmethyl)-amide] |
| 28 Response Units | NC[C@@H]1COc2ccc(OCc3ccccc3)cc2O1 [Example 86, C—((R)-7-Benzyloxy-2,3-dihydro-benzo[1,4]dioxin-2-yl)-methylamine] |
| 57 Response Units | O=C(NCc1ccncc1)C1COc2ccc(OCc3ccccc3)cc2O1 (centres unmarked) [Example 68, 7-Benzyloxy-2,3-dihydro-benzo[1,4]dioxine-2-carboxylic acid (pyridin-4-ylmethyl)-amide] |
| 48 Response Units | O=C(NCC1COCCN1)C1COc2ccc(OCc3ccccc3)cc2O1 (centres unmarked) [Example 76, 7-Benzyloxy-2,3-dihydro-benzo[1,4]dioxine-2-carboxylic acid (morpholin-3-ylmethyl)-amide] |
| 33 Response Units | O=C(NCc1cn[nH]c1)C1COc2ccc(OCc3ccccc3)cc2O1 (centres unmarked) [Example 73, 7-Benzyloxy-2,3-dihydro-benzo[1,4]dioxine-2-carboxylic acid (1H-pyrazol-4-ylmethyl)-amide] |
| 12 Response Units | O=C(NCc1ccnc(F)c1)C1COc2ccc(OCc3ccccc3)cc2O1 (centres unmarked) [Example 72, 7-Benzyloxy-2,3-dihydro-benzo[1,4]dioxine-2-carboxylic acid (2-fluoro-pyridin-4-ylmethyl)-amide] |
